Experimental data: publication PMC7211193, “Evaluation of absorption, distribution, metabolism, and excretion of [^14C]-rucaparib, a poly(ADP-ribose) polymerase inhibitor, in patients with advanced solid tumors” (Investigational New Drugs, 2019)
Several values for one entry are separate records, joined by “and”; a condition that tells them apart may be missing. Identical values can stand only once.

Assay: Metabolite profiling in pooled urine (LC-MS-Radiomatic)
Format: in vivo, human
Conditions: for % Dose in urine: pooled urine, % of administered dose
Method: For each patient, urine samples from different collection intervals were pooled in proportion to their sample weight in order to obtain a pooled sample covering 90% of the TRA in urine. Pooled urine samples were lyophilized and then extracted at least twice with acetonitrile. The obtained supernatant was evaporated to dryness, and the dried residues were reconstituted in 20% acetonitrile in water containing 0.1% TFA. An aliquot of the supernatant was analyzed for TRA to determine extraction efficiency, and the mean recovery was ≈70%. Aliquots of the supernatants were injected into the HPLC coupled to UV and radioactive detectors to obtain metabolite profiles. The samples were also analyzed using LC-MS for metabolite identification.
Metabolite profiling and identification were performed on an LC system (Agilent) coupled to an LTQ Orbitrap mass spectrometer (Thermo Electron, Waltham, MA, USA) in combination with offline TopCount (LC-MS-TopCount) or online Radiomatic 625TR (LC-MS-Radiomatic; PerkinElmer). Proposed structures of the metabolites were based on accurate mass (<5 ppm) and comparison of mass spectral data of parent compound rucaparib and metabolite standard M324. The Radiomatic 625TR flow detector, equipped with a 200 μL flow cell, was operated using scintillation cocktail (Ultima-Flo M) delivered at a flow rate of 1 mL/min. Chromatography was done using a Phenomenex (Torrance, CA, USA) Luna Phenyl-Hexyl column (250 × 2 mm, 5 μm, 100 Å) at ambient temperature during the sample analysis. The mobile phase was (A) 0.05% TFA in water and (B) 0.05% TFA in acetonitrile, with a 0.2 mL/min flow rate. The gradient was as follows: 5% B over 2.1 min, to 20% B in 1.0 min, to 35% B in 16.9 min, isocratic at 35% B for 5 min, to 95% B over 5 min, and reduced to 5% B over 1 min, with total run time 45 min.
The abundance of unchanged rucaparib and metabolites identified in plasma, urine, and feces was determined as a percentage of the TRA in the analyzed samples. Percentage of the administered dose of rucaparib and metabolites was calculated in urine and feces (formula A). The concentration of rucaparib and its metabolites in plasma (ng Eq h/mL) was calculated based on the specific activity, TRA, and percentage of peaks (formula B). The AUC0-24h value of rucaparib and its major metabolite M324 in plasma was calculated using both Hamilton method (formula C) and linear trapezoidal method (formula D). • (A) %Doseofmetabolite=TRAinurineorfeces(dpm)÷TRAinadministereddose(dpm)×%metabolitesinmatrix • (B) Metaboliteconcentrationsinplasma(ngEq/mL)=TRAinplasma(dpm/mL)specificactivity(ngEq/dpm)×%metabolitesinthematrix • (C) Hamiltonmethod:AUC0−24h(ngEqh/mL)=concentrationinHamilton(AUC0−24h)pooledplasma(ngEq/mL)×24(h) • (D) Lineartrapezoidalmethod:AUC0−24h(ngEqh/mL)=C1h/2×1h+C1h+C4h/2×(4h−1h)+C4h+C8h/2×(8h−4h)+C8h+C24h/2×(24h−8h)

CNCc1ccc(-c2[nH]c3cc(F)cc4c3c2CCNC4=O)cc1 [Rucaparib, rucaparib]
% of dose in pooled urine, Patient 01 (Patient 01): 14.3 % dose | % of dose in pooled urine, Patient 03 (Patient 03): 5.03 % dose | % of dose in pooled urine, Patient 05 (Patient 05): 2.85 % dose | % of dose in pooled urine, Patient 06 (Patient 06): 5.96 % dose | % of dose in pooled urine, Patient 08 (Patient 08): 10.7 % dose | % of dose in pooled urine, Patient 09 (Patient 09): 6.77 % dose | % Peak (of TRA) in urine (pooled urine covering 90% of urine radioactivity, N = 6, mean ± SD): 44.9 ± 15.6% | % Dose in urine (N = 6, mean ± SD): 7.59 ± 4.16% | % Dose in urine (N = 6, mean ± SD, listed as rucaparib): ≈ 7.6% and > 7%
